Measurements from US11992011B2, “Compounds for controlling plant pathogens” (VIB VZW, priority 2017, dated 2024).

Experiments:
Meloidogyne graminicola [1] = assay: Meloidogyne graminicola infection in rice, second experiment (Example 4); assay type: in vivo; details: infected rice, 100 μM; for median number of galls lower compared to untreated controls: 13 days after infection; for plants in which necrosis was present: absent in control plants; for Gall number: harvested 13 days after inoculation; for Gall number / Fraction of empty galls / Galls per adventitious root / Number of J2 / Number of J3 + J4 / Number of adults (with eggs) / Number of adults (without eggs) / Total nematodes: median (IQR); for Likelihood of necrosis: value ± spread
Description: (§1) Seeds were germinated on wet tissue paper at 30° C. in the dark for three days, followed by transfer to individual PVC tubes (for nematode infection) containing SAP (Reversat et al., 1999). SAP (sand-absorbent polymer) is a mixture of fine silica sand and ultra-absorbent acrylic copolymer (DCM AquaPerla, DSM, Grobbendonk, Belgium) in a ratio of 1 kg sand to 1.5 g of dry copolymer.
(§2) Before use, each tube was washed in soapy water and dried in an oven at 70° C. for two days. […] The first two days after transfer, the tubes were covered with a polyethylene film (Saran Film, Dow Chemicals, Midland, USA) to prevent excessive evaporation. Seedlings were watered three times per week with 8 ml of Hoagland solution (Hoagland, 1938).
(§3) M. graminicola was extracted from infected Echinocloa crus-galli roots grown in potting soil at 25° C. Roots were washed until most soil was removed, after which they were cut into short fragments (with special care taken to cut open any outwardly visible galls). The cut material was put in […] pore diameter sieves which were put into a tap water bath at room temperature for three days. The water was then poured over a […] mesh sieve. The sieve surface was washed with approximately 50 ml of non-demineralized water, which was collected into a beaker before it could seep through the sieve.
(§4) The number of nematodes in five 100 μl samples taken from the nematode suspension was counted under a stereo microscope and averaged to determine inoculum concentration. Each plant (grown per the protocol outlined in the previous section) was then inoculated by injecting the desired number of nematodes in the SAP surrounding the root system using a micro-pipette.
Infection experiments with M. graminicola were performed by inoculating host plants 14 days after transfer to SAP by introducing the desired amount of J2 juveniles next to the root system using a micro pipette. Rice plants (cv. Nipponbare or Kitaake) were inoculated with 250 J2 juveniles per plant; wheat plants (cv. Sahara) were inoculated with 600 J2 juveniles per plant. Plants were harvested 14 days after inoculation. At this point, the plants were phenotyped by measuring the shoot and root length with a ruler, counting the number of adventitious roots and in some experiments by measuring leaf area using the EasyLeafArea software (Easlon and Bloom, 2014) and by determining shoot dry mass after 72 hours of drying in an oven at 70° C. Root systems were then stained in acid fuchsine as described in (Byrd et al., 1983) and left to destain in glycerol with 1 ml/l fuming HCl added for approximately ten days. The number of galls and nematodes was then counted using a binocular microscope. […]
The second experiment was methodologically similar to the first. This time, plants were grown for 15 days before inoculation with 210 nematodes on average and harvested 13 days after inoculation. […]

OsPAL4 = assay: qRT-PCR in rice roots, OsPAL4 (Example 19); assay type: in vivo, Oryza sativa; details: rice cv. Bomba root tissue; 100 μM; harvested 13 days after germination; N=3 pools
Description: (§5) After quality control, qPCR was carried out.

OsC4H = assay: qRT-PCR in rice roots, OsC4H (Example 19); details: rice cv. Bomba root tissue; 100 μM; harvested 13 days after germination; N=3 pools
Meloidogyne graminicola [2] = assay: Meloidogyne graminicola infection in rice, first experiment (Example 3); assay type: in vivo; details: infected rice, 100 μM, median (IQR), n = 8; for Gall number: harvested twelve days after infection; for Galls per AR: per adventitious root
Description: as §1, §2, §3, §4
(§6) Infection experiments with M. graminicola were performed by inoculating host plants 14 days after transfer to SAP by introducing the desired amount of J2 juveniles next to the root system using a micro pipette. Rice plants (cv. Nipponbare or Kitaake) were inoculated with 250 J2 juveniles per plant; wheat plants (cv. Sahara) were inoculated with 600 J2 juveniles per plant. Plants were harvested 14 days after inoculation. At this point, the plants were phenotyped by measuring the shoot and root length with a ruler, counting the number of adventitious roots and in some experiments by measuring leaf area using the EasyLeafArea software (Easlon and Bloom, 2014) and by determining shoot dry mass after 72 hours of drying in an oven at 70° C. Root systems were then stained in acid fuchsine as described in (Byrd et al., 1983) and left to destain in glycerol with 1 ml/l fuming HCl added for approximately ten days. The number of galls and nematodes was then counted using a binocular microscope.
Rice plants were germinated for three days, transferred to SAP and grown for twelve days. After twelve days, 240 M. graminicola J2 nematodes on average were added to each plant. Plants were harvested twelve days after infection and roots were stained with acid fuchsine to visualize galls and nematodes.

OsPAL6 = assay: qRT-PCR in rice roots, OsPAL6 (Example 19); assay type: in vivo, Oryza sativa; details: rice cv. Bomba root tissue; 100 μM; harvested 13 days after germination; N=3 pools
Description: as §5

Meloidogyne graminicola [3] = assay: M. graminicola infection in wild type and OsWRKY45 knockdown rice (Example 16); assay type: in vivo; details: for Likelihood of necrosis / Fraction of empty galls / Fraction of small galls / Gall number / Galls per AR: MDCA/PA spray; for Fraction of empty galls / Fraction of small galls / Gall number / Galls per AR: median (interquartile range); for change of number of galls per root system, WRKY45 treated vs WRKY45 control: WRKY45-RNAi rice; for change of number of galls per root system, WT treated vs WT+CON: wild type rice
Description: as §6
To test the potential involvement of salicylic acid (SA) in MDCA/PA defense enhancement the response of MDCA/PA-treated RNAi-knockdown mutants in OsWRKY45 to nematode infection was examined. The OsWRKY proteins form a family of rice transcription factors that regulate a broad range of cellular processes, most of which are related to abiotic and biotic stress response (Jimmy and Babu, 2015). In keeping with their important role in defense, many OsWRKY genes are controlled by the plant defense hormones jasmonic acid and SA (Ryu et al., 2006; Jimmy and Babu, 2015).
OsWRKY45 is a master regulator of SA-induced defense responses. Knockdown lines in this gene are useful for testing whether MDCA/PA defense enhancement depends on SA signaling, as OsWRKY45 (unlike most other defense genes) is believed to be triggered only by SA (Ryu et al. 2006; incorporated by reference).
Galls were counted and classified by their size and by whether they were empty or not. The presence or absence of necrosis in the root system was also recorded.

OsICS1 = assay: qRT-PCR in rice roots, OsICS1 (Example 19); assay type: in vivo, Oryza sativa; details: rice cv. Bomba root tissue; 100 μM; harvested 13 days after germination; N=3 pools
Description: as §5

OsWRKY45 = assay: qRT-PCR in rice roots, OsWRKY45 (Example 19); assay type: in vivo, Oryza sativa; details: rice cv. Bomba root tissue; 100 μM; harvested 13 days after germination; N=3 pools
Description: as §5

OsPAL2 = assay: qRT-PCR in rice roots, OsPAL2 (Example 19); assay type: in vivo, Oryza sativa; details: rice cv. Bomba root tissue; 100 μM; harvested 13 days after germination; N=3 pools
Description: as §5

SMILES	median number of galls lower compared to untreated controls (Meloidogyne graminicola [1]) [%]	plants in which necrosis was present (Meloidogyne graminicola [1])	Gall number (Meloidogyne graminicola [1])	Fraction of empty galls (Meloidogyne graminicola [1])	Galls per adventitious root (Meloidogyne graminicola [1])	Number of J2 (Meloidogyne graminicola [1])	Number of J3 + J4 (Meloidogyne graminicola [1])	Number of adults (with eggs) (Meloidogyne graminicola [1])	Number of adults (without eggs) (Meloidogyne graminicola [1])	Total nematodes (Meloidogyne graminicola [1])	Likelihood of necrosis (Meloidogyne graminicola [1])	Fold change vs. control, OsPAL4 expression (OsPAL4)	Fold change vs. control, OsC4H expression (OsC4H)	Gall number (Meloidogyne graminicola [2])	Empty galls (Meloidogyne graminicola [2])	Fraction of small galls (Meloidogyne graminicola [2])	Number of J2 (Meloidogyne graminicola [2])	Number of J3 + J4 (Meloidogyne graminicola [2])	Number of adults (with eggs) (Meloidogyne graminicola [2])	Number of adults (without eggs) (Meloidogyne graminicola [2])	other results
O=C(O)/C=C/c1ccc2c(c1)OCO2 [MDCA, 3,4-methylenedioxycinnamic acid]	28	roughly 75%	8.0 (IQR = 1.0)	0.11 (IQR = 0.03)	0.80 (IQR = 0.17)	0.0 (IQR = 0.0)	7.0 (IQR = 5.0)	0.0 (IQR = 1.0)	10.0 (IQR = 2.0)	17.0 (IQR = 5.0)	0.78 ± 0.44	2.38	3.73	11.5 (IQR = 3.3)	0.5 (IQR = 1.3)	0.84 (IQR = 0.13)	7.5 (IQR = 8.0)	8.0 (IQR = 8.3)	3.0 (IQR = 13.3)	20.0 (IQR = 7.3)	Total nematodes (Meloidogyne graminicola [2]): 41.5 (IQR = 14.3); Galls per AR (Meloidogyne graminicola [2]): 0.78 (IQR = 0.22); Fold change vs. control, OsPAL6 expression (OsPAL6): 1.40; Likelihood of necrosis (Meloidogyne graminicola [3]; WRKY45-RNAi knockdown rice): 0.50 ± 0.53; Fraction of empty galls (Meloidogyne graminicola [3]; WRKY45-RNAi knockdown rice): 0.09 (0.01); Fraction of small galls (Meloidogyne graminicola [3]; WRKY45-RNAi knockdown rice): 0.94 (0.03); Gall number (Meloidogyne graminicola [3]; WRKY45-RNAi knockdown rice): 52.0 (10.8); Galls per AR (Meloidogyne graminicola [3]; WRKY45-RNAi knockdown rice): 3.3 (0.7); change of number of galls per root system, WRKY45 treated vs WRKY45 control (Meloidogyne graminicola [3]): −23%; Likelihood of necrosis (Meloidogyne graminicola [3]; Wild type rice): 0.63 ± 0.52; Fraction of empty galls (Meloidogyne graminicola [3]; Wild type rice): 0.02 (0.04); Fraction of small galls (Meloidogyne graminicola [3]; Wild type rice): 0.86 (0.07); Gall number (Meloidogyne graminicola [3]; Wild type rice): 36.5 (10.3); Galls per AR (Meloidogyne graminicola [3]; Wild type rice): 2.3 (0.6); change of number of galls per root system, WT treated vs WT+CON (Meloidogyne graminicola [3]): −42%; Fold change vs. control, OsICS1 expression (OsICS1): 1.73; Fold change vs. control, OsWRKY45 expression (OsWRKY45): 1.67; Fold change vs. control, OsPAL2 expression (OsPAL2): 1.86
O=C(O)c1ccc2c(c1)OCO2 [PA, Piperonylic acid]	36	roughly 75%	7.0 (IQR = 1.8)	0.13 (IQR = 0.17)	0.62 (IQR = 0.13)	0.0 (IQR = 1.0)	8.0 (IQR = 2.5)	0.0 (IQR = 0.0)	5.0 (IQR = 1.8)	13.5 (IQR = 2.5)	0.70 ± 0.48	3.04	9.87	12.5 (IQR = 4.0)	0.0 (IQR = 1.0)	0.76 (IQR = 0.08)	9.0 (IQR = 8.3)	5.0 (IQR = 5.5)	0.5 (IQR = 1.3)	19.5 (IQR = 11.8)	Total nematodes (Meloidogyne graminicola [2]): 32.5 (IQR = 17.8); Galls per AR (Meloidogyne graminicola [2]): 0.83 (IQR = 0.29); Fold change vs. control, OsPAL6 expression (OsPAL6): 1.26; Likelihood of necrosis (Meloidogyne graminicola [3]; WRKY45-RNAi knockdown rice): 0.60 ± 0.52; Fraction of empty galls (Meloidogyne graminicola [3]; WRKY45-RNAi knockdown rice): 0.02 (0.03); Fraction of small galls (Meloidogyne graminicola [3]; WRKY45-RNAi knockdown rice): 0.91 (0.05); Gall number (Meloidogyne graminicola [3]; WRKY45-RNAi knockdown rice): 39.0 (20.3); Galls per AR (Meloidogyne graminicola [3]; WRKY45-RNAi knockdown rice): 2.2 (0.8); change of number of galls per root system, WRKY45 treated vs WRKY45 control (Meloidogyne graminicola [3]): −41%; Likelihood of necrosis (Meloidogyne graminicola [3]; Wild type rice): 0.78 ± 0.44; Fraction of empty galls (Meloidogyne graminicola [3]; Wild type rice): 0.03 (0.03); Fraction of small galls (Meloidogyne graminicola [3]; Wild type rice): 0.93 (0.06); Gall number (Meloidogyne graminicola [3]; Wild type rice): 33.0 (10.0); Galls per AR (Meloidogyne graminicola [3]; Wild type rice): 1.8 (0.5); change of number of galls per root system, WT treated vs WT+CON (Meloidogyne graminicola [3]): −42%; Fold change vs. control, OsICS1 expression (OsICS1): 1.36; Fold change vs. control, OsWRKY45 expression (OsWRKY45): 1.30; Fold change vs. control, OsPAL2 expression (OsPAL2): 1.29
